Laboratory results reported in article PMC10644720 (Frontiers in Pharmacology, 2023).
Read-outs that look alike come from different tables or passages of the source.

How the values were obtained:
human washed platelets [1] = assay: Platelet ROS release assay (DCFH-DA); format: cell-based; conditions: for IC50: Homo sapiens, Platelet; for effect on platelet ROS release: luteolin 25 μM, BAY61-3606 63 nM
Method: The assay was performed as previously reported with minor modifications ([Arthur et al., 2012]; [Ye et al., 2020]). Briefly, WPs (500 × 10^9/L) were labeled with 5 μM Fluo-3AM (Cat No. IF0150; Solarbio) or 10 μM DCFH-DA (Cat No. D6883; Sigma, St. Louis, MO, United States) at 37°C for 30 min protected from light. […] In addition, 1 mM CaCl2 and collagen or convulxin were added to start the reaction. […] A ROS probe via a fluorescent enzyme marker was added. O2 ^− and H2O2 were measured using 2 μM Amplex Red (Cat No. ST010; Beyotime Institute of Biotechnology, Shanghai, China) or 2 μM Dihydroethidium (DHE, Cat No. S0063; Beyotime Institute of Biotechnology, Shanghai, China). O2 ^− and H2O2 were analyzed using a Fluoroskan Ascent fluorometer (Thermo Fisher, Waltham, Massachusetts, United States).

human washed platelets [2] = assay: Clot retraction experiment; format: cell-based; conditions: luteolin 100 μM; 0.1 U/mL thrombin
Method: Clot retraction experiments were completed using the previously reported method ([Zhang et al., 2015]). […] Then, 200 μL of WPs were placed in a siliconized glass tube with 1 mM CaCl2, 0.1 U/mL thrombin, and 10 µL PPP, mixed well, and left at 37°C. Pictures were taken every 5 min. The clot size was calculated using ImageJ software.

Q: Which results are given for `O=c1cc(-c2ccc(O)c(O)c2)oc2cc(O)cc(O)c12` [Luteolin]?
A: IC50 (human washed platelets [1]; read-out: IC50, inhibition of ROS release, convulxin (5 ng/mL)-induced): 3.51 µM; IC50 (human washed platelets [1]; collagen (10 μg/mL)-induced, read-out: IC50, inhibition of ROS release): 2.06 µM; effect on platelet ROS release (human washed platelets [1]; collagen (10 μg/mL)-induced): decreasing levels; effect on platelet ROS release (human washed platelets [1]; convulxin (5 ng/mL)-induced): decreased; thrombin-induced clot retraction (human washed platelets [2]): inhibited
